Data as given in paper PMC11885506, “Evaluation of a non-animal toolbox informed by adverse outcome pathways for human inhalation safety” (Frontiers in Toxicology, 2025).
Counter-ions that a name gives are not always drawn.

Key:
[1] = system: MucilAir™-HF tissues; experiment: Mucin-5AC (Muc5AC) immunohistochemistry, goblet cells, MucilAir-HF model; assay type: cell-based, human; settings: for Increase in cells expressing Muc5AC protein: 30 min/day
Protocol: (§1) Tissues were handled as recommended by manufacturer’s instruction.
The presence of goblet cells was assessed through immunohistochemistry analysis for mucin-5AC protein (Muc5AC) detection. IL-13 and cytomix were used as positive controls (see item 2.5.2 for additional details). On last day of experiment (day 12), cultures (n = 3 tissues/group) were rinsed in PBS and fixed by immersion in 4% formaldehyde for 20 min. Fixed tissues were embedded into paraffin, sectioned, and processed for staining on paraffin sections. The immunostaining of the sections was performed with the Benchmark automated platform (Ventana-Roche, Hoffmann-La Roche Ltd, Basel, Switzerland) and the Autostainer Link 48 (Agilent, Santa Clara, CA. United States) with the detection kit Ultraview DAB (DAB chromogeny, Hoffmann-La Roche Ltd). Sections were pre-treated using heat mediated antigen retrieval with sodium citrate buffer, pH 6, for 20 min. The section was then incubated with recombinant anti-mucin 5AC antibody (ab3649, Abcam) for 1 h at room temperature, followed by biotinylated secondary antibody (Dako) and HRP detection (HRP conjugated ABC system, Vector Laboratories), according to manufacturer’s instruction. The section was then counterstained with hematoxylin (Sigma-Aldrich) and mounted with DPX, a synthetic non-aqueous mounting medium for microscopy. Digital images of the slides were then acquired, and quantitative image analysis performed using Image Pro Plus 6.2 (Media Cybernetics) to quantify the goblet cells on a section. The whole images of stained sections were scanned, and an average 15 images/section were analysed. The results are the ratio between the mucin 5AC stained area and the total surface area of the epithelium on the section.

[2] = system: MucilAir™-HF tissues; experiment: Cytokine and chemokine measurements (Luminex), MucilAir-HF model; assay type: cell-based, human; settings: MucilAir-HF, 30 min/day exposure
Protocol: as §1
Basolateral medium samples of the tissue cultures were collected and stored at −80°C until analysis. The following cytokines/chemokines were quantified using customized Human Luminex® Discovery Assay kits (R&D Systems): chemokine (C-C motif) ligand (CCL) 2, CCL7, CCL26, C-X-C motif chemokine ligand (CXCL) 10, CXCL11, intercellular adhesion molecule-1 (ICAM-1), IL-1α, IL-6, IL-8, matrix metalloproteinase (MMP)-1, MMP-2, MMP-3, MMP-7, MMP-9, osteopontin, interferon (IFN)-γ, IL-1 receptor antagonist (IL-1Ra), urokinase-type plasminogen activator receptor (uPAR), tumour necrosis factor (TNF)-α, urokinase (uPA), serpin E1, tissue inhibitor of metalloproteinase 1 (TIMP-1), and TGF-β1. Samples were measured in technical triplicates according to the manufacturer’s recommendation using a Luminex Bio-Plex® 200 RUO System ([…]).

[3] = system: NCI-H292 cells; settings: 1 µM for 48h; ref Matsuyama et al., 2018; cited from earlier work
[4] = system: primary human nasal epithelial cells; design: method as in Uchenna Agu et al., 1999; settings: 10^-5 and 10^-3 M for 30-45 min; ref Uchenna Agu et al., 1999; cited from earlier work
[5] = system: 16HBE14 o^− cells; settings: cited from earlier work
[6] = system: MucilAir™-HF tissues; experiment: Mucin secretion measurement (enzyme-linked lectin assay), MucilAir-HF model; assay type: cell-based, human
Description: as §1
Mucin production was quantified using an enzyme-linked lectin assay, following a protocol previously published ([Rossner et al., 2019]).

[7] = system: MucilAir™-HF model; experiment: Bioactivity exposure ratio (BER): lowest in vitro PoD of MucilAir-HF readouts / upper respiratory tract exposure estimate
Protocol: Concentration and time-dependent changes in the bioactivity readout data were analyzed using a nonlinear state space model, based on the work of [Svensson and Schön (2017)]. […] All bioactivity readouts were included in the analysis (where available), i.e., measurements for tissue integrity loss (TEER) and functionality (MCC, CBF, and mucin secretion), cytokine/chemokine secretion, and the transcriptional LV values obtained using PLIER. The datasets were grouped so that a single state space model was used to capture all the responses (across time, concentration, and test material) for a single readout obtained within a particular study (laboratory/tissue model). Data were transformed to the log base 10 scale and normalized using z-scores, so that for a given readout Ytij from a laboratory/tissue model, the corresponding normalized value was given by y^tij=⁡log⁡10(Ytij)−μ)/σ . Here, the indexes i,j,t correspond to the different test materials, concentrations and timepoints, μ and σ are the sample mean and standard deviation of the control readout values obtained for the first timepoint. All measurement were then scaled so that the maximum median value across different replicates was one for all timepoints, readouts and test materials within a given laboratory/tissue model.
The model consists of state variables xti,j , response variables ytij and the concentrations of material c^i,j . The response variables yti,j represent the normalized (see below) readout values at timepoint t for material exposure i,j . The mean of the response variable is given by xti,j , so that yti,j∼xti,j+et , where et represents random fluctuations in the readout values, due to observational noise, which are taken to be normally distributed. Dynamical changes in state values are given by xti,j=fxt−1i,j,cti,j+vt . […] For each state space model representing a particular laboratory/readout dataset, SMC simulation was run for three chains at 5,000 iterations each, and first 1,000 iterations were discarded from the final posterior samples. […]

[8] = 30 min/day exposure, day 12, High 1 concentration (third of the tested concentrations), average ± standard deviation
[9] = 30 min/day exposure, day 12, Low concentration (first of the tested concentrations), average ± standard deviation
[10] = 30 min/day exposure, day 12, Medium concentration (second of the tested concentrations), average ± standard deviation

| Compound | Increase in cells expressing Muc5AC protein ([1]; 50 μM) [fold] | Increase in cells expressing Muc5AC protein ([1]; 100 μM) [fold] | % of Muc5AC area [1, 8] [%] | % of Muc5AC area [1, 9] [%] | % of Muc5AC area [1, 10] [%] | Cytokines/chemokines modulated (in words) [2] | MUC5AC mRNA expression [3] | CBF [4] | IL-8 levels ([5]; 1-30 nM for 18h, 16HBE cells, ref Lindén, 1996) | IL-6 and IL-8 release ([5]; 10-100 nM for 24h, ref Oehme et al., 2015) | Increase in cells expressing Muc5AC protein compared to unexposed tissues ([1]; positive control IL-13 at 10 ng/mL) [fold] | % of Muc5AC area ([1]; positive controls via liquid basal exposure, 30 min/day column, day 12, average ± standard deviation) [%] | MinPoD ([6]; Day 8, biomarker Mucins) [μg/cm2] | MinPoD ([6]; Day 12, biomarker Mucins) [μg/cm2] | % of Muc5AC area ([1]; 6 h/day exposure, day 12, single tested concentration, average ± standard deviation) [%] | BER_min ([7]; Scenario1, Day 8) | BER_min ([7]; Scenario1, Day 12) |
| --- | --- | --- | --- | --- | --- | --- | --- | --- | --- | --- | --- | --- | --- | --- | --- | --- | --- |
| CC(C)NCC(O)c1ccc(O)c(O)c1 (centres unmarked) [Isoproterenol, Isoproterenol hydrochloride] | 2.5 | 3 | 18.91 ± 3.09 | 8.78 ± 1.62 | 15.53 ± 1.41 | downregulation of MMP-7 only | significant increase in MUC5AC mRNA expression | maximally and irreversibly increased ciliary CBF | IL-8 levels were also increased | significant increase of IL-6 and IL-8 release | – | – | – | – | – | – | – |
| IL-13: goblet cell hyper-, metaplasia agent used as positive control at 10 ng/mL | – | – | – | – | – | – | – | – | – | – | 4 | 26.35 ± 3.34 | – | – | – | – | – |
| O=c1ccc2ccccc2o1 [Coumarin] | – | – | 3.29 ± 0.36 | 5.09 ± 0.57 | 6.83 ± 1.07 | – | – | – | – | – | – | – | 6.056 | 4.8708 | 2.85 ± 0.43 | 30691.6 | 24110.2 |
